We go through 120 compounds from a melting point compilation (Tetko et al.).

`CC(NC(N)=O)C1CC2CCC1C2` (stereo not given): the melting point fell in the range of 167 to 169 °C.

Consider `CCOc1ccc(N)cc1Cl`, for which the melting point was 63 to 65 °C.

As to `O=C(O)c1c[nH]c2cccc([N+](=O)[O-])c12`, the melting point fell in the range of 170 to 172 °C.

With `O=C1CCS(=O)(=O)c2ccc(F)cc21`, the melting point was in the range of 163 to 167 °C.

In the case of `COC(=O)c1ccccc1CBr`, the melting point fell in the range of 31 to 33 °C.

For `O=C(O)c1nn(-c2ccccc2C(F)(F)F)cc1O`, the melting point fell in the range of 141 to 145 °C.

`O=C(O)c1ccc(COc2ccccc2Br)cc1` showed a melting point of 185 to 187 °C.

In turn, `CCCc1nc2c(c(=O)[nH]1)CCN(Cc1ccccc1)C2` gave a melting point of 171 to 173 °C.

Compound `CCS(=O)(=O)CCn1ccc(N)n1` had a melting point of 53 to 55 °C.

`O=C(O)CCC(=O)c1ccc2c(c1)CCCC2`: the melting point lay in the range of 122 to 124 °C.

`Clc1cc2c(Cl)ncnc2[nH]1` displayed a melting point of 239 to 241 °C.

In turn, `CCNCC(O)c1ccc(C)cc1` (stereo not given) showed a melting point of 88 to 90 °C.

The compound `CS(=O)(=O)c1cccc(C(N)c2ccc(F)cc2)c1` (stereo not given) had a melting point of 88 to 90 °C.

In turn, `CNC(c1ccc(Cl)cc1)c1ccc(Cl)cc1` returned a melting point of 49 to 51 °C.

For the compound `COc1ccc(C2CCN2S(=O)(=O)c2ccc(C)cc2)cc1` (stereo not given), the melting point was in the range of 102 to 104 °C.

Consider `Cc1c[nH]c(=O)n1-c1cccc([N+](=O)[O-])c1`, for which the melting point was in the range of 201 to 203 °C.

`CNC(C)c1ccc(S(N)(=O)=O)cc1` (stereo not given) came in with a melting point of 145 to 147 °C.

Compound `NC(=S)c1ncc(N)s1` returned a melting point of 191 to 193 °C.

Compound `C=CCn1cnc(-c2ccccc2)c1N` came in with a melting point of 72 to 74 °C.

As for `OCc1cnc(-c2ccco2)o1`, the melting point lay in the range of 99 to 101 °C.

Take `O=CC1=C(Sc2ccccc2)CCCC1`: the melting point was 42 to 44 °C.

With `Cc1nc(-c2c(C)c(C)nn(C)c2=O)sc1C(=O)O`, the melting point lay within 239 to 241 °C.

For `Cc1ccc(-n2cc(C(=O)O)c(C(C)(C)C)n2)cc1`, the melting point fell in the range of 218 to 220 °C.

On to `CC(=O)c1ccc(C(=O)O)c(F)c1`, for which the melting point lay in the range of 159 to 161 °C.

`O=C(CCl)Nc1nc(-c2ccc(F)cc2)cs1`: the melting point lay within 142 to 144 °C.

For the compound `O=C(O)c1cc(O)cs1`, the melting point was in the range of 206 to 208 °C.

`CCN(C)C(=O)c1cccc(C(=O)O)c1`: the melting point was in the range of 102 to 104 °C.

For the compound `CCN(CC)S(=O)(=O)c1ccc2nc(CCl)[nH]c2c1`, the melting point is 93 to 95 °C.

Consider `CN(C)S(=O)(=O)c1cn[nH]c1`, for which the melting point lay within 132 to 134 °C.

Turning to `Fc1ccc(-c2nc(CCl)no2)cc1`, the melting point lay within 51 to 55 °C.

Regarding `Nc1cc(Cl)c(NC(=O)c2cnccn2)c(Cl)c1`, the melting point was in the range of 195 to 197 °C.

In turn, `O=S1(=O)NN=Cc2ccccc21` yielded a melting point of 141 to 143 °C.

In turn, `Cc1cc(C(=O)CCl)c(C)cc1Br` had a melting point of 79 to 81 °C.

Turning to `NNC(=O)Nc1ccc(C(=O)O)cc1`, the melting point was 192 to 194 °C.

As to `Clc1csc(Cl)n1`, the melting point was 42 to 46 °C.

The compound `CNC(=O)c1cc(Oc2cccc(O)c2)ccn1` showed a melting point of 124 to 126 °C.

Compound `COc1cc(SC)ccc1C(=O)O` returned a melting point of 111 to 114 °C.

`Cc1cccc2c(Cl)ncnc12` gave a melting point of 131 to 133 °C.

On to `O=C(O)c1cn(Cc2ccccc2)nc1-c1cccs1`, for which the melting point was in the range of 131 to 133 °C.

As for `O=C1CCC(C(=O)O)CN1` (stereo not given), the melting point was in the range of 174 to 176 °C.

On to `COc1ccc(-c2cncc(C(=O)O)c2)cc1`, for which the melting point fell in the range of 278 to 280 °C.

With `O=C(O)CN(Cc1ccccc1)S(=O)(=O)c1ccc(Cl)cc1`, the melting point lay within 149 to 151 °C.

Turning to `CSCCC(C(=O)O)N1C(=O)C2CCCCC2C1=O` (stereo not given), the melting point fell in the range of 268 to 270 °C.

Take `Cc1cc(=O)nc2sc(N3CCNCC3)nn12`: the melting point was in the range of 234 to 236 °C.

`Cc1cc(C(=O)O)c2c(C)nn(C)c2n1` yielded a melting point of 262 to 264 °C.

Consider `COC(=O)C(CC(C)C)NC(N)=O` (stereo not given), for which the melting point lay within 68 to 70 °C.

The compound `CN(C)S(=O)(=O)c1ccc2nc(Cl)c(Cl)nc2c1` yielded a melting point of 139 to 141 °C.

In turn, `CNC(=O)CC(N)=NO` came in with a melting point of 119 to 121 °C.

The compound `COC(=O)c1[nH]c(=O)[nH]c1C` yielded a melting point of 229 to 231 °C.

In the case of `CCc1ccc(-c2csc(N)n2)s1`, the melting point lay in the range of 92 to 94 °C.

Compound `CN1CCN(S(=O)(=O)c2ccc(Cl)c([N+](=O)[O-])c2)CC1` came in with a melting point of 276 to 278 °C.

As for `Cc1ccc(C(=O)NC2CCNCC2)s1`, the melting point was in the range of 163 to 165 °C.

Take `CCOc1ccccc1-c1nnc(S)n1N`: the melting point lay within 153 to 155 °C.

`COc1ccc(CC(O)C(=O)O)cc1` (stereo not given) displayed a melting point of 84 to 86 °C.

Compound `CS(=O)(=O)c1snc(O)c1C#N` had a melting point of 235 to 237 °C.

Regarding `O=C(O)c1cc(-c2ccc(Cl)cc2)on1`, the melting point fell in the range of 185 to 187 °C.

Turning to `NCc1noc(-c2cccs2)n1`, the melting point lay within 146 to 148 °C.

On to `Cc1cc(C(=O)O)c(C)n1CC1CC1`, for which the melting point was 179 to 181 °C.

Compound `COc1ccc(-c2csc(C)n2)cc1` showed a melting point of 55 to 57 °C.

Take `Cc1ccc(-c2nc(N)sc2-c2ccc(C)cc2)cc1`: the melting point was in the range of 153 to 155 °C.

As for `ClCc1nnc(-c2ccccc2Br)o1`, the melting point lay in the range of 104 to 107 °C.

`CCOc1ccc(C(=O)N2CCCC(C(=O)O)C2)cc1OCC` (stereo not given) returned a melting point of 189 to 191 °C.

`CC(C)S(=O)(=O)NCC1CCCNC1` (stereo not given) registered a melting point of 156 to 158 °C.

As for `Brc1ccc(C2CNCCO2)cc1` (stereo not given), the melting point is 53 to 55 °C.

The compound `CS(=O)(=O)c1ccc(NC(N)=O)cc1` came in with a melting point of 224 to 226 °C.

For `O=[N+]([O-])c1ccc(S(=O)(=O)Cl)c(Br)c1`, the melting point lay within 70 to 72 °C.

As to `Cc1ccc(-c2nn(-c3ccccc3)cc2C(=O)O)cc1C`, the melting point was 215 to 217 °C.

Consider `NC(=O)Nc1cccc(N)c1`, for which the melting point is 125 to 127 °C.

In turn, `O=C(O)c1ccc2c(c1)S(=O)(=O)N(C1CC1)C2=O` came in with a melting point of 283 to 285 °C.

As to `O=C(O)C1CCCN1C(=O)C12CC3CC(CC(C3)C1)C2` (stereo not given), the melting point lay in the range of 193 to 195 °C.

`NC(=O)c1ccccc1OCCC(=O)O` returned a melting point of 174 to 176 °C.

In the case of `Cc1cc(Cl)c([N+](=O)[O-])cc1S(=O)(=O)Cl`, the melting point fell in the range of 116 to 118 °C.

Consider `ClCc1nnc(-c2cc3c(s2)CCCC3)o1`, for which the melting point is 107 to 109 °C.

`CCS(=O)(=O)c1ccc(CC(=O)O)cc1` showed a melting point of 53 to 55 °C.

For `O=C(O)C1Cc2ccccc2CN1C(=O)CCl` (stereo not given), the melting point lay in the range of 153 to 155 °C.

`COc1ccc(C(=O)C(C)Br)cc1` (stereo not given) returned a melting point of 66 to 68 °C.

Turning to `O=C(O)c1cc(OCc2ccccc2)ccc1O`, the melting point lay in the range of 165 to 167 °C.

`COc1ccc(NC(N)=S)cc1`: the melting point was in the range of 208 to 210 °C.

`CCc1ccccc1Nc1nnc(S)s1` came in with a melting point of 159 to 161 °C.

The compound `CC(C)(C)c1ccc(C=CC(=O)O)cc1` displayed a melting point of 206 to 208 °C.

In the case of `CC(C)c1nonc1N`, the melting point was 43 to 45 °C.

Consider `COc1cc(C(C)=O)ccc1S(C)(=O)=O`, for which the melting point fell in the range of 124 to 126 °C.

In turn, `O=C(Cl)c1cc(Cl)nc2ccccc12` returned a melting point of 85 to 87 °C.

`Cc1nc2ccc(C#N)cc2s1` gave a melting point of 129 to 131 °C.

The compound `O=C(O)c1sccc1C1CC1` displayed a melting point of 169 to 171 °C.

The compound `O=C(O)c1cc(Br)cc2ccccc12` displayed a melting point of 229 to 231 °C.

`O=C(CCl)Nc1ccc(Oc2ccc(Br)cc2)nc1` gave a melting point of 114 to 116 °C.

As for `COc1ccc(N2CC(C(=O)O)CC2=O)c(OC)c1` (stereo not given), the melting point fell in the range of 183 to 185 °C.

`O=C(O)c1ccc(Oc2ccc(Cl)cc2)c(F)c1`: the melting point is 128 to 130 °C.

Turning to `Cn1c(C(=O)O)cc2c(=O)n3ccccc3nc21`, the melting point is 288 to 290 °C.

On to `O=[N+]([O-])c1ccc(S(=O)(=O)Cl)c(C(F)(F)F)c1`, for which the melting point is 78 to 80 °C.

Consider `Nc1cc(C(F)(F)F)ccc1C1CCNCC1`, for which the melting point lay in the range of 86 to 88 °C.

`O=[N+]([O-])c1ccc(N2CCNCC2)cn1`: the melting point was 147 to 149 °C.

The compound `O=[N+]([O-])c1cc(Cl)ccc1I` had a melting point of 63 to 65 °C.

On to `Cc1nnc(S)n1N`, for which the melting point was in the range of 186 to 188 °C.

Regarding `CCN(CC)c1ccc(S(N)(=O)=O)cc1N`, the melting point lay in the range of 102 to 104 °C.

Compound `CN1C(=O)c2ccc(NC(=O)CCl)cc2C1=O` registered a melting point of 203 to 205 °C.

As for `Cc1sc([N+](=O)[O-])cc1[N+](=O)[O-]`, the melting point is 81 to 83 °C.

On to `Nc1nc(-c2cc(Cl)sc2Cl)cs1`, for which the melting point fell in the range of 144 to 146 °C.

`CS(=O)(=O)NCc1ccccn1` had a melting point of 88 to 90 °C.

For `CS(=O)(=O)Cc1c(N)cccc1F`, the melting point was 129 to 131 °C.

Turning to `CC(C)(C)OC(=O)Nc1cccc(CCl)c1`, the melting point lay within 103 to 105 °C.

Compound `Cc1nn(-c2ccc(Cl)cc2)c(C)c1C=O` registered a melting point of 131 to 133 °C.

Compound `O=C(c1cccc(Cl)c1)N1CCNCC1` had a melting point of 96 to 98 °C.

`O=C(O)c1ccc(Cl)c(Cl)c1O` came in with a melting point of 212 to 214 °C.

Compound `Cc1cc2cc(C=O)oc2cc1C` returned a melting point of 69 to 71 °C.

As for `O=C1Cc2cc3c(cc2CCN1)OCCO3`, the melting point is 226 to 228 °C.

Compound `CNc1ncccc1N` displayed a melting point of 108 to 110 °C.

For `O=Cc1c[nH]nc1-c1ccc2c(c1)OCCO2`, the melting point fell in the range of 210 to 212 °C.

As to `CCCOc1ccc(CNC(=O)CCl)cc1`, the melting point is 109 to 111 °C.

`Cc1ccccc1CNc1ccccc1N` came in with a melting point of 71 to 73 °C.

Turning to `CC(N)c1ccc2[nH]c(=O)[nH]c2c1` (stereo not given), the melting point was in the range of 394 to 396 °C.

For the compound `CCOC(=O)C1=C(CC)Nc2ccccc2N=C1N`, the melting point lay in the range of 152 to 154 °C.

On to `CN(C)C=C1C(=O)CCC1=O`, for which the melting point lay in the range of 89 to 91 °C.

For the compound `NC(=S)N1CCN(c2nccs2)CC1`, the melting point fell in the range of 179 to 181 °C.

In the case of `COc1ccc(C(=O)O)cc1S(=O)(=O)NCc1ccncc1`, the melting point was 225 to 227 °C.

`CC(C)(C)OC(=O)NCc1nnc(-c2cccnc2)[nH]1`: the melting point was 196 to 198 °C.

Turning to `Cc1nnc(-c2ccccc2C(=O)O)o1`, the melting point is 158 to 160 °C.

Regarding `CCOC(=O)NCCC(=O)O`, the melting point fell in the range of 47 to 49 °C.

In turn, `Cc1nc(S)c(C(N)=O)c(C)c1C` displayed a melting point of 294 to 296 °C.

For orientation: melting point means the temperature, or range, at which the solid turns liquid.
